One assay has as its system primary human B cells. Kind of assay: B cell activation assay (CD69 on anti-IgM stimulated B cells). The assay is classed as cell-based. The following applies: AUC of dose response curve (10 μM to 1 nM) of CD69 MFI normalized to DMSO control. In short, it runs like this: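 Negatively selected PBMC-derived B cells (>95% CD20+) treated with Cbl-b inhibitors from 10 μM to 1 nM (DMSO <0.5%) and stimulated with anti-IgM for 20 h at 37° C. CD69 MFI on CD20+ IgD+ cells by flow cytometry; dose-response AUC normalized to DMSO plus 2.5 μg/mL anti-IgM-F(ab′)2, binned A-D.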

A further assay concerns primary human NK cells. Kind of assay: NK cell activation assessed by cytokine secretion (coculture with K562 NucRed target cells). Format: cell-based. The note with it: for fold induction at 0.625 µM: 0.625 μM compound; for fold induction at 2.5 µM: 2.5 μM compound. In short, it runs like this: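 Read-out is cytokine secretion (IFNγ, TNFα, MIP1β; ELISA or Luminex) as fold over coculture without inhibitor, >2.0-fold taken as positive. Donor NK cells, IL-2 primed (60 ng/mL) overnight, received compound 1 h ahead (e.g. 0.1–10 μM, DMSO <0.1%) and were mixed 6 h with K562 NucRed targets at e.g. 5:1, 1:1, 1:5.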

[1] abbreviates: K562, NK cells cocultured with K562 NucRed, 1:1 E/T, read-out: IFNγ secretion, fold change over baseline.
Where [2] appears, read: K562, NK cells cocultured with K562 NucRed, 1:1 E/T, read-out: TNFα secretion, fold change over baseline.
The mark [3] stands for this setting: K562, NK cells cocultured with K562 NucRed, 1:1 E/T, 10 μM compound, read-out: IFNγ secretion, fold change over baseline.
Setting [4] is: K562, NK cells cocultured with K562 NucRed, 1:1 E/T, 10 μM compound, read-out: TNFα secretion, fold change over baseline.

Read-outs that look alike come from different tables or passages of the source. Bounds are passed on as bounds.

`C[C@H](c1cc2c(c(C(F)(F)F)c1)CN(c1cccc(C3(Cc4nncn4C)COC3)c1)C2=O)N1CC[C@H](F)C1` [Compound 413, 6-((R)-1-((S)-3-fluoropyrrolidin-1-yl)ethyl)-2-(3-(3-((4-methyl-4H-1,2,4-triazol-3-yl)methyl)oxetan-3-yl)phenyl)-4-(trifluoromethyl)isoindolin-1-one]: the “CD69 MFI AUC” value with primary human B cells was “C (C indicates 1.01-1.50)”. In addition, the fold induction at 0.625 µM in the assay with primary human NK cells (setting [1]) and in the assay with primary human NK cells (setting [2]) was 2.01 to 5 each time. Also, the fold induction at 2.5 µM was above 5 in the assay on primary human NK cells (setting [1]) and 2.01 to 5 in the assay on primary human NK cells (setting [2]). The values for the fold induction at 10 µM in the assay with primary human NK cells (setting [3]) and in the assay with primary human NK cells (setting [4]) were above 5 and 2.01 to 5, respectively.

As to `Cn1cnnc1CC1(c2cccc(N3Cc4c(cc(CN5CC(F)C5)cc4C(F)(F)F)C3=O)c2)COC1` [Compound 415, 6-((3-fluoroazetidin-1-yl)methyl)-2-(3-(3-((4-methyl-4H-1,2,4-triazol-3-yl)methyl)oxetan-3-yl)phenyl)-4-(trifluoromethyl)isoindolin-1-one], in the assay with primary human B cells, the “CD69 MFI AUC” value is on record as “C (C indicates 1.01-1.50)”. The values for the fold induction at 0.625 µM with primary human NK cells (setting [1]) and in the assay on primary human NK cells (setting [2]) were 2.01 to 5 and 1.01 to 2, respectively. The fold induction at 2.5 µM in the assay with primary human NK cells (setting [1]) and in the assay on primary human NK cells (setting [2]) was 2.01 to 5 throughout. The results for the fold induction at 10 µM with primary human NK cells (setting [3]) and in the assay with primary human NK cells (setting [4]) were above 5 and 2.01 to 5, respectively.

Take `Cn1cnnc1CC1(c2cccc(N3Cc4c(cc(CN5CC[C@H](C#N)C5)cc4C(F)(F)F)C3=O)c2)COC1` [Compound 422, (S)-1-((2-(3-(3-((4-methyl-4H-1,2,4-triazol-3-yl)methyl)oxetan-3-yl)phenyl)-3-oxo-7-(trifluoromethyl)isoindolin-5-yl)methyl)pyrrolidine-3-carbonitrile]: the “CD69 MFI AUC” value with primary human B cells is reported as “C (C indicates 1.01-1.50)”. The fold induction at 0.625 µM with primary human NK cells (setting [1]) and in the assay on primary human NK cells (setting [2]) was 1.01 to 2 throughout. For the same compound, the fold induction at 2.5 µM with primary human NK cells (setting [1]) lay in the range of 2.01 to 5; in the assay on primary human NK cells (setting [2]) it was 1.01 to 2. Moreover, the fold induction at 10 µM with primary human NK cells (setting [3]) and in the assay on primary human NK cells (setting [4]) was 2.01 to 5 each time.

Turning to `Cn1cnnc1C(F)(F)[C@](C)(F)c1cccc(N2Cc3c(cc(C(=O)N4CC[C@H](O)C4)cc3C(F)(F)F)C2=O)c1` [Compound 438, 6-((S)-3-hydroxypyrrolidine-1-carbonyl)-2-(3-((R)-1,1,2-trifluoro-1-(4-methyl-4H-1,2,4-triazol-3-yl)propan-2-yl)phenyl)-4-(trifluoromethyl)isoindolin-1-one], the “CD69 MFI AUC” value in the assay on primary human B cells is reported as “A (A indicates ≤0.5)”. The fold induction at 1 µM in the assay on primary human NK cells (K562, 1:1 E/T, read-out: IFNγ secretion) was below 1; with primary human NK cells (K562, 1:1 E/T, read-out: MIP1β secretion), below 1; with primary human NK cells (K562, 1:1 E/T, read-out: TNFα secretion), 1.01 to 2; in the assay with primary human NK cells (K562, 5:1 E/T, read-out: IFNγ secretion) it was below 1; in the assay on primary human NK cells (K562, 5:1 E/T, read-out: MIP1β secretion), below 1; in the assay on primary human NK cells (K562, 5:1 E/T, read-out: TNFα secretion), 1.01 to 2. Moreover, the fold induction at 10 µM with primary human NK cells (K562, 1:1 E/T, 10 μM, read-out: IFNγ secretion) is below 1; with primary human NK cells (K562, 1:1 E/T, 10 μM, read-out: MIP1β secretion) it was below 1; with primary human NK cells (K562, 1:1 E/T, 10 μM, read-out: TNFα secretion), 1.01 to 2; with primary human NK cells (K562, 5:1 E/T, 10 μM, read-out: IFNγ secretion) it was 1.01 to 2; in the assay on primary human NK cells (K562, 5:1 E/T, 10 μM, read-out: MIP1β secretion), 1.01 to 2; with primary human NK cells (K562, 5:1 E/T, 10 μM, read-out: TNFα secretion), 1.01 to 2. Besides, the fold induction at 10 µM in the assay on primary human NK cells (setting [3]) fell in the range of 2.01 to 5; in the assay with primary human NK cells (setting [4]), 1.01 to 2. Also, the fold induction at 0.625 µM in the assay on primary human NK cells (setting [1]) and in the assay on primary human NK cells (setting [2]) was 1.01 to 2 throughout. The fold induction at 2.5 µM in the assay on primary human NK cells (setting [1]) and in the assay with primary human NK cells (setting [2]) was 1.01 to 2 in each case.

Consider `Cn1cnnc1C(F)(F)[C@](C)(F)c1cccc(N2Cc3c(cc(N4CCNCC4)cc3C(F)(F)F)C2=O)c1` [Compound 442, (R)-6-(Piperazin-1-yl)-2-(3-(1,1,2-trifluoro-1-(4-methyl-4H-1,2,4-triazol-3-yl)propan-2-yl)phenyl)-4-(trifluoromethyl)isoindolin-1-one], for which the “CD69 MFI AUC” value with primary human B cells is given as “B (B indicates 0.5-1.00)”. The fold induction at 0.625 µM with primary human NK cells (setting [1]) and in the assay on primary human NK cells (setting [2]) was 2.01 to 5 each time. Further, the fold induction at 2.5 µM in the assay on primary human NK cells (setting [1]) and in the assay with primary human NK cells (setting [2]) was 2.01 to 5 throughout. Also, the fold induction at 10 µM in the assay on primary human NK cells (setting [3]) lay in the range of 2.01 to 5; with primary human NK cells (setting [4]), 1.01 to 2.

Consider `Cn1cnnc1C(F)(F)[C@](C)(F)c1cccc(N2Cc3c(cc(CN4CC[C@@H](F)C4)cc3C(F)(F)F)C2=O)c1` [Compound 450], for which the “CD69 MFI AUC” value in the assay on primary human B cells is given as “C (C indicates 1.01-1.50)”. The fold induction at 0.625 µM was 2.01 to 5 with primary human NK cells (setting [1]) and 1.01 to 2 with primary human NK cells (setting [2]). In addition, the fold induction at 2.5 µM in the assay with primary human NK cells (setting [1]) is above 5; with primary human NK cells (setting [2]), 2.01 to 5. Moreover, the fold induction at 10 µM is above 5 in the assay on primary human NK cells (setting [3]) and 2.01 to 5 in the assay with primary human NK cells (setting [4]).

For `COC1CN(Cc2cc3c(c(C(F)(F)F)c2)CN(c2cccc([C@@](C)(F)C(F)(F)c4nncn4C)c2)C3=O)C1` [Compound 452, (R)-6-((3-methoxyazetidin-1-yl)methyl)-2-(3-(1,1,2-trifluoro-1-(4-methyl-4H-1,2,4-triazol-3-yl)propan-2-yl)phenyl)-4-(trifluoromethyl)isoindolin-1-one], in the assay on primary human B cells, the “CD69 MFI AUC” value is on record as “D (D indicates ≥1.51)”. Further, the results for the fold induction at 0.625 µM in the assay with primary human NK cells (setting [1]) and in the assay on primary human NK cells (setting [2]) were above 5 and 1.01 to 2, respectively. Moreover, the results for the fold induction at 2.5 µM with primary human NK cells (setting [1]) and in the assay with primary human NK cells (setting [2]) were above 5 and 2.01 to 5, respectively. Besides, the fold induction at 10 µM was above 5 in the assay on primary human NK cells (setting [3]) and 2.01 to 5 with primary human NK cells (setting [4]).

As for `Cn1cnnc1C(F)(F)[C@](C)(F)c1cccc(N2Cc3c(cc(CN4CC[C@@H](C#N)C4)cc3C(F)(F)F)C2=O)c1` [Compound 455, (R)-1-((3-oxo-2-(3-((R)-1,1,2-trifluoro-1-(4-methyl-4H-1,2,4-triazol-3-yl)propan-2-yl)phenyl)-7-(trifluoromethyl)isoindolin-5-yl)methyl)pyrrolidine-3-carbonitrile], in the assay with primary human B cells, the “CD69 MFI AUC” value is reported as “C (C indicates 1.01-1.50)”. In addition, the figures for the fold induction at 0.625 µM in the assay with primary human NK cells (setting [1]) and in the assay on primary human NK cells (setting [2]) were above 5 and 1.01 to 2, respectively. Moreover, the results for the fold induction at 2.5 µM with primary human NK cells (setting [1]) and in the assay on primary human NK cells (setting [2]) were above 5 and 2.01 to 5, respectively. For the same compound, the figures for the fold induction at 10 µM in the assay with primary human NK cells (setting [3]) and in the assay on primary human NK cells (setting [4]) were above 5 and 2.01 to 5, respectively.

Turning to `C[C@H](Cc1nncn1C)c1cccc(NC(=O)c2cc3cc(N4CCNCC4)ccc3cn2)c1` [Compound 472, N-{3-[(2R)-1-(4-methyl-4H-1,2,4-triazol-3-yl)propan-2-yl]phenyl}-6-(piperazin-1-yl)isoquinoline-3-carboxamide], in the assay with primary human B cells, the “CD69 MFI AUC” value is “C (C indicates 1.01-1.50)”. The fold induction at 0.625 µM in the assay on primary human NK cells (setting [1]) and in the assay with primary human NK cells (setting [2]) was below 1 throughout. The fold induction at 2.5 µM in the assay with primary human NK cells (setting [1]) was 1.01 to 2; in the assay with primary human NK cells (setting [2]), below 1. Also, the fold induction at 10 µM in the assay with primary human NK cells (setting [3]) lay within 2.01 to 5; in the assay with primary human NK cells (setting [4]) it was 1.01 to 2.

With `Cn1cnnc1CC1(c2cccc(NC(=O)c3cc(CN4CCC5(CC5)C4)cc(C4CC4)n3)c2)COC1` [Compound 519, 4-((5-azaspiro[2.4]heptan-5-yl)methyl)-6-cyclopropyl-N-(3-(3-((4-methyl-4H-1,2,4-triazol-3-yl)methyl)oxetan-3-yl)phenyl)picolinamide], the “CD69 MFI AUC” value in the assay on primary human B cells was “D (D indicates ≥1.51)”. Besides, the fold induction at 0.625 µM with primary human NK cells (setting [1]) and in the assay on primary human NK cells (setting [2]) was above 5 each time. For the same compound, the figures for the fold induction at 2.5 µM with primary human NK cells (setting [1]) and in the assay with primary human NK cells (setting [2]) were above 5 and 1.01 to 2, respectively. Further, the figures for the fold induction at 10 µM with primary human NK cells (setting [3]) and with primary human NK cells (setting [4]) were above 5 and 2.01 to 5, respectively.

As to `Cn1cnnc1CC1(c2cccc(N3Cc4c(cc(CN5CCC6(CC6)C5)cc4C(F)(F)F)C3=O)c2)COC1` [Compound 520, 6-((5-azaspiro[2.4]heptan-5-yl)methyl)-2-(3-(3-((4-methyl-4H-1,2,4-triazol-3-yl)methyl)oxetan-3-yl)phenyl)-4-(trifluoromethyl)isoindolin-1-one], in the assay on primary human B cells, the “CD69 MFI AUC” value is listed as “D (D indicates ≥1.51)”. The values for the fold induction at 0.625 µM with primary human NK cells (setting [1]) and in the assay with primary human NK cells (setting [2]) were above 5 and 2.01 to 5, respectively. The fold induction at 2.5 µM in the assay on primary human NK cells (setting [1]) and with primary human NK cells (setting [2]) was above 5 throughout. Also, the values for the fold induction at 10 µM in the assay on primary human NK cells (setting [3]) and with primary human NK cells (setting [4]) were above 5 and 2.01 to 5, respectively.

These data come from patent publication US20220324835A1 (Nurix Therapeutics, Inc., priority 2018, published 2022).
